# Measured values taken from patent US20080076824A1, “Compounds That Inhibit Replication Of Human Immunodeficiency Virus” (priority 2004, published 2008).
# Where a name gives a salt, the structure may show the parent alone.
# Test: Microdose study of 14C-AlphaHGA in healthy volunteers, plasma pharmacokinetics (AMS)
# Assay type: in vivo, human
# Protocol: In this example, the pharmacokinetics (PK) and oral bioavailability of AlphaHGA in adult healthy volunteers following a single ‘microdose’ in a sequence-randomized, cross-over study design (two periods 7 days apart) was determined. Clinical experiments were conducted with low-level radiolabelled (^14C) AlphaHGA administered intravenously (IV) orally (PO) with serial blood and urine samples were collected for concentration analysis utilizing accelerator mass spectrometry (AMS).
# Accordingly, eight subjects were enrolled into a single dose cross-over study. The subjects were randomly assigned to one of two administration sequences. Subjects that were assigned to sequence 1 received AlphaHGA as an oral preparation first (Period 1) followed by the intravenous (IV) preparation 1 week later (Period 2). Subjects assigned to sequence 2 received AlphaHGA as an intravenous preparation first followed by the oral preparation 1 week later. Four subjects were assigned to sequence 1 and four subjects were assigned to sequence 2.
# For both oral and IV doses subjects were administered 100 nCi (3.7 Kbq) of alphaHGA, which was determined to contain 1.602888×10ˆ6 fmol of ^14C. The specific activity of each dose was 46.619 MBq/mol (or 1.260 mCi/mol). A stock blend of ^14C-labelled alphaHGA was produced prior to the first study period. The actual formulations used for dosing were prepared on the morning prior to each study period. The infusion was a single bolus injection with both the infusion and flush were completed in less than 30 seconds.
# Blood (5 ml) was collected following the administration of AlphaHGA orally or as an IV bolus at the following times: pre-dose (T=0) and 15, 30, 45, 60 minutes, and at 2, 3, 4, 6, 8, 10, 12, 16, 24 hours post-dose. All of the 224 scheduled blood samples were obtained. Blood specimens were drawn by intravenous in-dwelling catheter into 2×10 mL EDTA containing Vacutainer tubes and RBC's separated by centrifugation.
# Plasma specimens (30 μL) were analyzed directly via the combustive procedure without further chemical manipulation. For the purposes of calculating ^14C concentration per volume of plasma, a general carbon content of 45% (dry mass) was applied. The urine was mixed with equal volumes (0.5 mL) of a sucrose carbon diluent solution (200 g/L) and mixed by inversion in a disposable polypropylene centrifuge tube. A 20-μL sample was graphitized for AMS analysis according to standard procedures. The mass fraction of the urine represented in the measured sample was inverted and multipled by the ^14C contents above background derived from the AMS measurement to calculate the ^14C content in the total urine void. A density value of 1 g/mL for urine was assumed to calculate its volume from the recorded masses.
# Pharmacokinetic parameters were estimated by noncompartmental analysis employing the PK software WinNonlin version 4.1 (Pharsight Corporation, Palo Alto, Calif.). Statistical analyses were performed using either WinNonlin 4.1 or SPlus 2000 (Insightful Inc, Seattle, Wash.). All parameter calculations are reported from observed values and not from predicted values. However, observed and predicted values were very close and parameter estimates from both approaches were nearly equal.
# . Values for the following PK parameters were estimated from plasma alphaHGA concentrations:
# Maximum observed concentration (Cmax) and the time to reach Cmax (Tmax), the last quantified concentration (Clast), the time to Clast (Tlast), and time to the first quantified concentration (Tfirst) came from the experimentally observed values.
# Terminal elimination rate constant (λz), was estimated from log-linear regression analysis of the apparent terminal phase of the plasma concentration-time profile. Weighting for the regression was 1/Y^2. The associated plasma half-life (T½) was calculated as T½=ln 2/λz. The point employed for estimating λz, were selected by the WinNonlin default curve stripping algorithm. […]
smiles,measurement,setting,value
"NC(=O)C(N)O (stereo not drawn) [AlphaHGA, α-Hydroxy-glycinamide hydrochloride]",AUC % Extrap,all subjects,less than 20%
same,terminal elimination half-life in the plasma,following both routes of administration,approximately 10 hours
same,absorption,oral administration,rapidly and completely absorbed after oral administration
same,AUC % Extrap,"plasma, Period 1, Max",17.43%
same,AUCTmax,"plasma, Period 1, Max",0.02396 nM·h
same,AUCinf,"plasma, Period 1, Max",0.43166 nM·h
same,AUClast,"plasma, Period 1, Max",0.39184 nM·h
same,Az,"plasma, Period 1, Max",0.084 h⁻¹
same,Clast,"plasma, Period 1, Max",0.00462 nM
same,Cmax,"plasma, Period 1, Max",0.0668 nM
same,T ½,"plasma, Period 1, Max",10.32 h
same,Tmax,"plasma, Period 1, Max",1.00 h
same,AUC % Extrap,"plasma, Period 1, Mean",13.16%
same,AUCTmax,"plasma, Period 1, Mean",0.01354 nM·h
same,AUCinf,"plasma, Period 1, Mean",0.35555 nM·h
same,AUClast,"plasma, Period 1, Mean",0.30901 nM·h
same,Az,"plasma, Period 1, Mean",0.074 h⁻¹
same,Clast,"plasma, Period 1, Mean",0.0034 nM
same,Cmax,"plasma, Period 1, Mean",0.0477 nM
same,T ½,"plasma, Period 1, Mean",9.45 h
same,Tmax,"plasma, Period 1, Mean",0.50 h
same,AUC % Extrap,"plasma, Period 1, Min",9.23%
same,AUCTmax,"plasma, Period 1, Min",0.00422 nM·h
same,AUCinf,"plasma, Period 1, Min",0.27962 nM·h
same,AUClast,"plasma, Period 1, Min",0.24083 nM·h
same,Az,"plasma, Period 1, Min",0.067 h⁻¹
same,Clast,"plasma, Period 1, Min",0.00267 nM
same,Cmax,"plasma, Period 1, Min",0.0337 nM
same,T ½,"plasma, Period 1, Min",8.26 h
same,Tmax,"plasma, Period 1, Min",0.25 h
same,AUC % Extrap,"plasma, Period 2, Max",19.51%
same,AUCTmax,"plasma, Period 2, Max",0.04903 nM·h
same,AUCinf,"plasma, Period 2, Max",0.4907 nM·h
same,AUClast,"plasma, Period 2, Max",0.46442 nM·h
same,Az,"plasma, Period 2, Max",0.118 h⁻¹
same,Clast,"plasma, Period 2, Max",0.00459 nM
same,Cmax,"plasma, Period 2, Max",0.076 nM
same,T ½,"plasma, Period 2, Max",12.80 h
same,Tmax,"plasma, Period 2, Max",2.00 h
same,AUC % Extrap,"plasma, Period 2, Mean",13.94%
same,AUCTmax,"plasma, Period 2, Mean",0.01698 nM·h
same,AUCinf,"plasma, Period 2, Mean",0.3847 nM·h
same,AUClast,"plasma, Period 2, Mean",0.33218 nM·h
same,Az,"plasma, Period 2, Mean",0.073 h⁻¹
same,Clast,"plasma, Period 2, Mean",0.00356 nM
same,Cmax,"plasma, Period 2, Mean",0.0574 nM
same,T ½,"plasma, Period 2, Mean",10.06 h
same,Tmax,"plasma, Period 2, Mean",0.59 h
same,AUC % Extrap,"plasma, Period 2, Min",5.36%
same,AUCTmax,"plasma, Period 2, Min",0.00615 nM·h
same,AUCinf,"plasma, Period 2, Min",0.32388 nM·h
same,AUClast,"plasma, Period 2, Min",0.27076 nM·h
same,Az,"plasma, Period 2, Min",0.054 h⁻¹
same,Clast,"plasma, Period 2, Min",0.00292 nM
same,Cmax,"plasma, Period 2, Min",0.0392 nM
same,T ½,"plasma, Period 2, Min",5.88 h
same,Tmax,"plasma, Period 2, Min",0.25 h
same,AUC % Extrap,"plasma, Route iv, Max",19.51%
same,AUCTmax,"plasma, Route iv, Max",0.02396 nM·h
same,AUCinf,"plasma, Route iv, Max",0.43166 nM·h
same,AUClast,"plasma, Route iv, Max",0.39184 nM·h
same,Az,"plasma, Route iv, Max",0.084 h⁻¹
same,Clast,"plasma, Route iv, Max",0.00462 nM
same,Cmax,"plasma, Route iv, Max",0.0722 nM
same,T ½,"plasma, Route iv, Max",12.80 h
